Data as given in US5098613A, “Anti-inflammatory agents” (Eli Lilly and Company, priority 1990, dated 1992).

Tests used:
[1] = system: inflammation created by injecting carrageenin into the hind paws of rats; experiment: Carrageenin Assay; type: in vivo; conditions: Rattus norvegicus, ip, 50 mg/kg i.p., prior to carrageenin injection, read-out: Percent Inhibition (Antiinflammatory Activity in the Carrageenin Assay)
Method: The compounds were evaluated for antiinflammatory activity in the test method described by C. A. Winter, Proc. Soc. Exp. Biol. Med., 111, 544 (1962). In this test, inflammation is created by injecting carrageenin into the hind paws of rats. Test compounds are administered prior to injection to determine percent inhibition of the subsequent inflammation in comparison with control animals.

[2] = system: Arachidonic Acid Induced Ear Edema; experiment: Arachidonic Acid-Induced Ear Edema Assay; type: in vivo, Female BALB/C mice; conditions: Mus musculus, 1 h, topical, one hour prior to arachidonic acid, read-out: Percent Inhibition of Ear Swelling
Method: Female BALB/C mice (Charles River; 18-20 rams) were divided into groups of five. Arachidonic acid was dissolved in ethanol at a concentration of 200 mg/ml. Each mouse received 2 mg/ear of arachidonic acid on the inner surface of the right ear. This dose of phlogistic was applied by an automatic pipette in 10 mcl volumes. The left ear (control) received ethanol. Drugs were applied topically in an ethanol-based gel to the entire outer surface of both ears one hour prior to arachidonic acid application. Edema was measured by the increase in ear weight. An hour after arachidonic acid solution or vehicle was applied, an ear sample of 7 mm in diameter was obtained from both ears. Ear edema was calculated by subtracting the […], dividing by the weight of the left/Control ear, and averaging the results for each group of mice according to compound and concentration.

[3] = system: IL-1 induced T-cell Proliferation; experiment: Anti IL-1 Activity (Thymocyte Assay): suppression of IL-1 induced T-cell proliferation; type: cell-based, C3H/HeJ male mice; conditions: mouse thymocytes, 48 hours, read-out: Percent T-cell suppression; for inhibition at 1 µg/mL: 1 mcg/ml; for inhibition at 10 µg/mL: 10 mcg/ml
Method: Thymus from 3-4 week old C3H/HeJ male mice and were passed through a #100 mesh screen to make a single cell suspension. The cells were suspended in RPMI-1640 supplemented with 2×10^-5 M 2-mercaptoethanol, 3% fetal calf serum, and 1% Penicillin/Streptomycin. The cell suspension was placed in a tissue culture flask and incubated at 37° C. in 5% carbon dioxide in air for 1-2 hours. The thymocytes were decanted, leaving adherent cells behind, and the liquid was centrifuged at 1400 rpm for 10 minutes. After decanting the supernatant, the cells were resuspended and counted with a hemocytometer. The density was adjusted to […]. Fifty μ1 of the suspension were added to each well of a 96-well microtiter plate, followed by the addition of 25 μl of PHA and 25 μl IL-1 (1:25 dilution of a 10 mcg/ml stock solution) per well.
Each compound to be tested was dissolved in 30% DMSO/70% PBS to make a stock solution of 1 mg/ml. Fifteen μl of each compound were added to 300 μl of media in the serial dilution plate. Twenty-five μl of each drug were added to the test plate in quadruplicate wells across the plate. The plate was incubated at 37° C. in 5% carbon dioxide in air for 48 hours. The wells were pulsed with tritiated thymidine (5 μCi.well) for 4 hours before harvesting on a Skatron cell harvester. The filter discs were placed in mini-vials, scintillation fluid (Tol-Pop) was added, and the vials counted. The percent of counts for each vial compared with control samples wherein no compound was added (vehicles only) was determined for each compound and are reported as Table III below as the percent T-ce1 suppression.

[4] = system: shock after E. coli LPS and galactosamine (GALN) challenge; experiment: Mouse Endotoxin Shock Assay; type: in vivo, C57BL/6 male mice; conditions: LPS/GALN s.c. challenge, results 48 hours after challenge, Reed Muench Method
Method: Compounds were given to 18-20 g C57BL/6 male mice using various regimens depending upon mode of administration. Control animals received corresponding vehicles only. The mice were then challenged with 0.2 ml of chromatographically purified 0111:B4 E. coli LPS and galactosamine hydrochloride (GALN) given subcutaneously (back of the neck). GALN was given at an approximate dose of 500 mg/kg whereas the LPS dose ranged between 0.3-1.2 μg/mouse (15-60 μg/k9). Control animals generally die of shock 7-15 hours after administration of LPS/GALN although a small number (0-5%) may die 24-48 hours after such administration. Calculation of the EDso for each compound was performed using the Reed Muench Method for results obtained 48 hours after challenge.

[5] = biological target: T1, leukotriene B4 specific receptor on the membrane of human neutrophils (Homo sapiens, UniProt Q15722); experiment: Inhibition of Binding of ^3 H-LTB4 to Peripheral Human Neutrophils; conditions: 4° C., 10 minutes; for inhibition at 10 µM: drug concentration 10^-5 M, read-out: LTB4 Binding Inhibition; for inhibition at 1 µM: drug concentration 10^-6 M
T1 construct: incubating neutrophils (1×10^7 cells) with 0.1-0.2 nM ^3 H-LTB4; endogenous in cells; host or cells: human peripheral blood neutrophils (buffy coats of two blood donors)
Outline: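 Freshly isolated human donor neutrophils (1×10^7 cells) in HBSS/0.1% ovalbumin pH 7.3 were incubated with 0.1-0.2 nM ^3H-LTB4 and compound at 1×10^-5 or 1×10^-6 M for 10 min at 4 °C. Bound ligand was separated by centrifugation through phthalate oil and counted, then corrected for nonspecific binding and compared with compound-free control.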

T1 sequence (Q15722 whole entry): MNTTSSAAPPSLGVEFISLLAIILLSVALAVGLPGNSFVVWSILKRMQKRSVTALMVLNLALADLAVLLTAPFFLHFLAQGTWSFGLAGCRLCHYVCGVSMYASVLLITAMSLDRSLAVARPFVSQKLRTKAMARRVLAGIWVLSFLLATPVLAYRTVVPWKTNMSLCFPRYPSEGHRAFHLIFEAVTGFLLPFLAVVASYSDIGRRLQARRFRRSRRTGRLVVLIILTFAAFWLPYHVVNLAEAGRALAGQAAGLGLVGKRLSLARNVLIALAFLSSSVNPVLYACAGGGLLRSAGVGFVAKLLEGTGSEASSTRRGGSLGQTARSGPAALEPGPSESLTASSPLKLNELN

| Structure (SMILES) | inhibition in vivo at 50 mg/kg [1] | inhibition in vivo at 0.028 % ([2]; 0.028% in ethanol gel) | inhibition at 1 µg/mL [3] | inhibition at 10 µg/mL [3] | ED50 [4] | inhibition at 10 µM [5] | inhibition at 1 µM [5] | inhibition in vivo at 1 % ([2]; 1% in ethanol gel) |
| --- | --- | --- | --- | --- | --- | --- | --- | --- |
| CCc1cc(C(C)=O)c(O)cc1OCCCCCCS(C)(=O)=O [Example 83, 2-Hydroxy-4-[6-(methylsulfonyl)hexyl-oxy]-5-ethylacetophenone] | 26% | 59% | 29% | 43% | > 50 mg/kg | 98% | 61% | – |
| CCc1cc(C(C)=O)c(O)cc1OCCCCc1nnnn1C [Example 122, 2-Hydroxy-4-[4-(1-methyl-lH-tetrazol-5-yl)butoxy]-5-ethylacetophenone] | 53% | – | 37% | 87% | 42 mg/kg | 66% | 24% | 10% |
